Assay results: ChEMBL document CHEMBL3616379, “From carbohydrates to drug-like fragments: Rational development of novel α-amylase inhibitors” (Bioorg Med Chem, 2015)

The compounds below were run against T1, Alpha-amylase 1A (Homo sapiens, UniProt P0DUB6) (assay: Inhibition of human salivary alpha-amylase using GalG2CNP as substrate by UV-Vis spectrophotometric analysis). Conditions: not given.
T1 sequence (P0DUB6 whole entry): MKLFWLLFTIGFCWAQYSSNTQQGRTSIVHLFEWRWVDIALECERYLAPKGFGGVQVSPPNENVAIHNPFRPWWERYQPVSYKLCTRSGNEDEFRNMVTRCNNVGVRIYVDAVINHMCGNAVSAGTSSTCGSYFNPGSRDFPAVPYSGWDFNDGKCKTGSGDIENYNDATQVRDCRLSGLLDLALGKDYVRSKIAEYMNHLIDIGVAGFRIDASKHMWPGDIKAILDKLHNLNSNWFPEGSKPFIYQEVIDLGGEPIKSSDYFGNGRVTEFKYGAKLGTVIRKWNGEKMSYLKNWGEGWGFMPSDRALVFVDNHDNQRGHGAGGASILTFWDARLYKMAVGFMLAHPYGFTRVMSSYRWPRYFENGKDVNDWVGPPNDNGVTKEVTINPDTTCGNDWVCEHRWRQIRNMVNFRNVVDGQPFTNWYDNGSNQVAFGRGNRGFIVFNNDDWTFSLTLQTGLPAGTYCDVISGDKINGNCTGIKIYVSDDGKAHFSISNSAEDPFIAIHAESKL

Row | SMILES | IC50
1 | Cc1cc(C=O)c(O)c(/C=N/N=C(/N/N=C/c2cc(C)cc(C=O)c2O)SCc2ccccc2)c1 | ND(Insoluble)

Same assay, conditions: read-out: IC50

Row | SMILES | IC50 [µM]
2 | C/C(=N\NC(=O)CCC(=O)Nc1ccccc1C)c1ccc(O)cc1O | 850
3 | COc1cccc(C2NC(c3cccc(OC)c3O)C([N+](=O)[O-])C(C)(C)C2[N+](=O)[O-])c1O (configuration not stated) | 300
4 | CCc1cc(-c2n[nH]c(C(=O)O)c2-c2ccc3c(c2)OCO3)c(O)cc1O | 4000
5 | CC(O)CNCCNCc1ccc(-c2ccccc2F)o1 (configuration not stated) | 1000
6 | Oc1ccc(Nc2nc(-c3ccc(O)cc3)cs2)cc1 | 492
7 | Cc1[nH]nc(-c2ccc(O)cc2O)c1Oc1ccc(C(=O)O)cc1 | 4000
8 | O=C(O)c1ccc(Nc2nc(-c3ccc(O)cc3O)cs2)cc1 | 680
9 | Cc1ccc(-c2csc(Nc3ccc(O)cc3)n2)cc1 | 735
10 | CC(=O)N1CCN(C2=NC(=O)/C(=C\c3ccccc3O)S2)CC1 | 700
11 | COc1cccc(NC(=N)Nc2nc(O)cc(CSc3ccccn3)n2)c1 | 330
12 | Oc1ccc(Nc2nc(-c3ccc(Cl)cc3)cs2)cc1 | 1040
13 | Oc1ccc(Nc2nc(-c3ccccc3)cs2)cc1 | 1270
14 | O=C(O)c1ccc(Nc2nc(-c3ccc(O)cc3O)cs2)cc1O | 642

These compounds were tested against Alpha amylase (Homo sapiens) (UniProt P0DUB6) (assay: (§1) Inhibition of alpha-amylase (unknown origin) relative to control). Conditions: concentration not given here.
Parameters: concentration or dose not given beside the values

Row | SMILES | inhibition [%]
15 | Oc1cc(O)c2cc(O)c(-c3ccc(O)c(O)c3)[o+]c2c1 | 12
16 | O=c1cc(-c2ccc(O)cc2)oc2cc(O)cc(O)c12 | 12.4
17 | C[C@@H]1O[C@@H](Oc2c(-c3ccc(O)c(O)c3)oc3cc(O)cc(O)c3c2=O)[C@H](O)[C@H](O)[C@H]1O | 37.6
18 | C[C@@H]1O[C@@H](OC[C@H]2O[C@@H](Oc3c(-c4ccc(O)c(O)c4)oc4cc(O)cc(O)c4c3=O)[C@H](O)[C@@H](O)[C@@H]2O)[C@H](O)[C@H](O)[C@H]1O | 20.1
19 | OC[C@H]1O[C@@H](Oc2ccc(O)cc2)[C@H](O)[C@@H](O)[C@@H]1O | 30
20 | O=c1c(O[C@@H]2O[C@H](CO)[C@@H](O)[C@H](O)[C@H]2O)c(-c2ccc(O)c(O)c2)oc2cc(O)cc(O)c12 | 12.2
21 | O=c1ccc2cc(O)c(O)cc2o1 | 17.4

What follows are compounds tested against T2, Alpha amylase (Homo sapiens, UniProt P0DUB6) (assay: as §1). Conditions: not given.
T2 sequence (P0DUB6 whole entry): T1 sequence (P0DUB6 whole entry)

Row | SMILES | IC50 [µM]
22 | O=C(O)[C@]1(O)C[C@@H](O)[C@@H](O)[C@H](O)C1 [QUINIC ACID] | 13000
23 | Oc1cc(O)c2c(c1)O[C@H](c1ccc(O)c(O)c1)[C@H](O)C2 [(-)-EPICATECHIN] | 3500
24 | O=C1C[C@@H](c2ccc(O)cc2)Oc2cc(O)cc(O)c21 [NARINGENIN] | 1800
25 | O=C(O)c1ccc(O)c(O)c1 [PROTOCATECHUIC ACID] | > 10000
26 | COc1cc(/C=C/C(=O)O)cc(OC)c1O [SINAPINATE] | > 6500
27 | O=c1cc(-c2ccc(O)c(O)c2)oc2cc(O[C@@H]3O[C@H](CO)[C@@H](O)[C@H](O)[C@H]3O)cc(O)c12 [GALUTEOLIN] | 280
28 | COc1ccc(CCC(=O)O)cc1OC | > 12000
29 | O=C(O)CCc1ccc(O)c(O)c1 [DIHYDROCAFFEIC ACID] | > 14000
30 | O=c1ccc2cc(O[C@@H]3O[C@H](CO)[C@@H](O)[C@H](O)[C@H]3O)c(O)cc2o1 [ESCULIN] | 1670
31 | COc1cc2ccc(=O)oc2cc1O [SCOPOLETIN] | 1300
32 | O=C(O)/C=C/c1ccc(O)c(O)c1 [CAFFEIC ACID] | 4800
33 | O=C(/C=C/c1ccc(O)c(O)c1)O[C@H](Cc1ccc(O)c(O)c1)C(=O)O [ROSMARINIC ACID] | 1400
34 | O=C(/C=C/c1ccc(O)c(O)c1)O[C@@H]1C[C@@](OC(=O)/C=C/c2ccc(O)c(O)c2)(C(=O)O)C[C@@H](O)[C@@H]1O [CYNARIN] | > 2000
35 | O=C(/C=C/c1ccc(O)c(O)c1)O[C@@H]1C[C@](O)(C(=O)O)C[C@@H](OC(=O)/C=C/c2ccc(O)c(O)c2)[C@H]1O | 390
36 | O=C(O)c1cccc(O)c1O [2,3-DIHYDROXYBENZOIC ACID] | > 7000
37 | COc1cc(/C=C/C(=O)O)ccc1O [FERULATE] | > 5000
